Measurements taken from PubChem BioAssay AID2060886 (Molecular Pharmacology Branch, DTP, NCI, 2025).

Tested on: 653999-131-R-J2-PDC complex spheroids, growth inhibition
Assay: Anticancer human tumor 653999-131-R-J2-PDC patient-derived lung adenocarcinoma cell line growth inhibition [RAS]
Conditions: for IC50: curve of first compound; for viability, T/C: stronger effect = lower value; active = viability on the fitted dose curve at most 10% of control; inactive = the rest
Outline: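 Agents were tested in combination matrices in half-log decrements from a top concentration at or near clinical Cmax (10 microM if undetermined). Targets were multi-cell spheroids of tumour lines plus HUVEC and MSC stromal cells.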

[1] = second compound 0.00316 µM, first compound 0.0316 µM
[2] = second compound 0.00316 µM, first compound 0.1 µM
[3] = second compound 0.00316 µM, first compound 0.316 µM
[4] = second compound 0.00316 µM, first compound 1 µM
[5] = second compound 0.00316 µM, first compound 3.16 µM
[6] = second compound 0.00316 µM, first compound 10 µM
[7] = second compound 0.01 µM, first compound 0.0316 µM
[8] = second compound 0.01 µM, first compound 0.1 µM
[9] = second compound 0.01 µM, first compound 0.316 µM
[10] = second compound 0.01 µM, first compound 1 µM
[11] = second compound 0.01 µM, first compound 3.16 µM
[12] = second compound 0.01 µM, first compound 10 µM
[13] = second compound 0.0316 µM, first compound 0.0316 µM
[14] = second compound 0.0316 µM, first compound 0.1 µM
[15] = second compound 0.0316 µM, first compound 0.316 µM
[16] = second compound 0.0316 µM, first compound 1 µM
[17] = second compound 0.0316 µM, first compound 3.16 µM
[18] = second compound 0.0316 µM, first compound 10 µM
[19] = second compound 0.1 µM, first compound 0.0316 µM
[20] = second compound 0.1 µM, first compound 0.1 µM
[21] = second compound 0.1 µM, first compound 0.316 µM
[22] = second compound 0.1 µM, first compound 1 µM
[23] = second compound 0.1 µM, first compound 3.16 µM
[24] = second compound 0.1 µM, first compound 10 µM
[25] = second compound 0.316 µM, first compound 0.0316 µM
[26] = second compound 0.316 µM, first compound 0.1 µM
[27] = second compound 0.316 µM, first compound 0.316 µM
[28] = second compound 0.316 µM, first compound 1 µM
[29] = second compound 0.316 µM, first compound 3.16 µM
[30] = second compound 0.316 µM, first compound 10 µM
[31] = second compound 1 µM, first compound 0.0316 µM
[32] = second compound 1 µM, first compound 0.1 µM
[33] = second compound 1 µM, first compound 0.316 µM
[34] = second compound 1 µM, first compound 1 µM
[35] = second compound 1 µM, first compound 3.16 µM
[36] = second compound 1 µM, first compound 10 µM
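Note: spheroids exposed to the agents for seven days before the readout.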

CCC(CC)c1cc(NC2CCC(N)C2)n2nccc2n1 (stereo unspecified) + C=CC(=O)N1CCN(c2nc(OCC3CCCN3C)nc3c(F)c(-c4nc(N)cc(C)c4C(F)(F)F)c(Cl)cc23)C(C)C1
2.03 µM: IC50 (second compound 0.0316 µM)
2.05 µM: IC50 (second compound 0.00316 µM)
inactive: viability, T/C [1] 107% | viability, T/C [2] 109% | viability, T/C [3] 95.5% | viability, T/C [4] 101% | viability, T/C [5] 16.5% | viability, T/C [6] 21.7% | viability, T/C [7] 91.2% | viability, T/C [8] 92.2% | viability, T/C [9] 104% | viability, T/C [10] 99% | viability, T/C [11] 16.9% | viability, T/C [12] 18.1% | viability, T/C [13] 93.3% | viability, T/C [14] 117% | viability, T/C [15] 87.4% | viability, T/C [16] 94.3% | viability, T/C [17] 18.2% | viability, T/C [18] 26% | viability, T/C [19] 99.9% | viability, T/C [20] 95.4% | viability, T/C [21] 112% | viability, T/C [22] 113% | viability, T/C [23] 16.1% | viability, T/C [24] 25.5% | viability, T/C [25] 123% | viability, T/C [26] 100% | viability, T/C [27] 93.7% | viability, T/C [28] 89.4% | viability, T/C [29] 14.8% | viability, T/C [30] 23.8% | viability, T/C [31] 114% | viability, T/C [32] 97.2% | viability, T/C [33] 111% | viability, T/C [34] 116% | viability, T/C [35] 13.8% | viability, T/C [36] 20.9%
1.97 µM: IC50 (second compound 0.01 µM)
2.1 µM: IC50 (second compound 1 µM)
1.91 µM: IC50 (second compound 0.316 µM)
2.12 µM: IC50 (second compound 0.1 µM)

Cc1nc(N2CCC3(CC2)COC(C)C3N)c(CO)nc1Sc1ccnc(N)c1Cl (stereo unspecified) + C=CC(=O)N1CCN(c2nc(OCC3CCCN3C)nc3c(F)c(-c4nc(N)cc(C)c4C(F)(F)F)c(Cl)cc23)C(C)C1
inactive: viability, T/C [1] 81.4% | viability, T/C [2] 76.7% | viability, T/C [3] 77.9% | viability, T/C [4] 74.6% | viability, T/C [5] 83.3% | viability, T/C [6] 78.2% | viability, T/C [7] 90.5% | viability, T/C [8] 86.5% | viability, T/C [9] 78.3% | viability, T/C [10] 80.6% | viability, T/C [11] 86.9% | viability, T/C [12] 63.9% | viability, T/C [13] 87.2% | viability, T/C [14] 82.6% | viability, T/C [15] 93.1% | viability, T/C [16] 84.7% | viability, T/C [17] 78.1% | viability, T/C [18] 63.9% | viability, T/C [19] 103% | viability, T/C [20] 77.6% | viability, T/C [21] 90.2% | viability, T/C [22] 73.5% | viability, T/C [23] 77% | viability, T/C [24] 70% | viability, T/C [25] 92% | viability, T/C [26] 82% | viability, T/C [27] 82.9% | viability, T/C [28] 78.4% | viability, T/C [29] 80.7% | viability, T/C [30] 73.9% | viability, T/C [31] 105% | viability, T/C [32] 66.7% | viability, T/C [33] 74.8% | viability, T/C [34] 78.3% | viability, T/C [35] 67.3% | viability, T/C [36] 82.1%
> 10 µM: IC50 (second compound 0.00316 µM) | IC50 (second compound 0.01 µM) | IC50 (second compound 0.0316 µM) | IC50 (second compound 0.1 µM) | IC50 (second compound 0.316 µM) | IC50 (second compound 1 µM)

NC1c2ccccc2OC12CCN(c1cnc3c(N4CCCc5ncccc54)n[nH]c3n1)CC2 (stereo unspecified) + C=CC(=O)N1CCN(c2nc(OCC3CCCN3C)nc3c(F)c(-c4nc(N)cc(C)c4C(F)(F)F)c(Cl)cc23)C(C)C1
> 10 µM: IC50 (second compound 0.00316 µM) | IC50 (second compound 0.01 µM) | IC50 (second compound 0.0316 µM) | IC50 (second compound 0.1 µM) | IC50 (second compound 0.316 µM) | IC50 (second compound 1 µM)
inactive: viability, T/C [1] 69.5% | viability, T/C [2] 70.1% | viability, T/C [3] 80.6% | viability, T/C [4] 79.7% | viability, T/C [5] 70.5% | viability, T/C [6] 64.6% | viability, T/C [7] 78.4% | viability, T/C [8] 75.2% | viability, T/C [9] 78.5% | viability, T/C [10] 89.3% | viability, T/C [11] 68.6% | viability, T/C [12] 69.9% | viability, T/C [13] 76.5% | viability, T/C [14] 77.7% | viability, T/C [15] 82.5% | viability, T/C [16] 67.8% | viability, T/C [17] 86.4% | viability, T/C [18] 81.6% | viability, T/C [19] 97.8% | viability, T/C [20] 75% | viability, T/C [21] 70.2% | viability, T/C [22] 83.2% | viability, T/C [23] 76.6% | viability, T/C [24] 73.3% | viability, T/C [25] 86% | viability, T/C [26] 89.8% | viability, T/C [27] 84.8% | viability, T/C [28] 65.5% | viability, T/C [29] 88.2% | viability, T/C [30] 73.2% | viability, T/C [31] 76.6% | viability, T/C [32] 67.2% | viability, T/C [33] 87.9% | viability, T/C [34] 72.9% | viability, T/C [35] 85% | viability, T/C [36] 66.3%
